Assay results: patent publication US20240165196A1, “Beta-Lactamase Inhibitors” (VIB VZW, priority 2021, published 2024)
Where two headings read alike, the source gives them in different places.

Experiments:
TEM-1 = target: T1, TEM-1 (Escherichia coli, UniProt P62593); assay: thermal denaturation with right-angle/static light scattering (aggregation) in presence of beta-lactamase inhibitors; assay type: biochemical, E. coli; details: TEM-1, dose titration of inhibitor
T1 construct: DNA TEM (870 bp) or SHV (894 bp) were each sub-cloned into a PUC57 vector cloning site NdeI/XhoI; His-tag (N); TEV cleavage site (N); made in house; host or cells: E. coli BL21 (DE3)
Excerpt: (FIG. 1E) Heat denaturation of TEM-1 monitored by intrinsic fluorescence plotted as the BaryCentric Mean (BCM) of the fluorescence emission spectrum in the presence (red) and absence (blue) of tazobactam. […] (FIG. 1F) Temperature-dependent evolution of the Right-Angle Light Scattering (RALS) intensity measured simultaneously with the data in FIG. 1G to monitor protein aggregation. […] (FIGS. 1G, 1H, 1I, and 1J) Same data as in FIG. 1F, but showing a dose-titration of different beta-lactamase inhibitors: tazobactam (FIG. 1G), clavulanate (FIG. 1H), vaborbactam (FIG. 1I) and avibactam (FIG. 1J). Each curve a single experiment, which was repeated in triplicate.
Then, we performed a thermal denaturation whilst simultaneously monitoring the intrinsic fluorescence as a measure of the folding status of the molecule (FIG. 1E), and the static light scattering as a measure of aggregation (FIG. 1F).

[1] = system: SHV beta-lactamase in strain expressing SHV-154; assay: western blot of inclusion body (IB) fraction for SHV; assay type: cell-based, E. coli; details: 12 μM peptide in PBS, 120 min
Method: (§1) FIGS. 3A-3P. […] Three replicates are shown for each condition. […] A single representative image is shown. […] Three replicates are shown for each condition. (FIG. 3E) [Left] […] [Middle] […] [Right] […] A single representative image is shown. […] A single representative image is shown. […] A single representative image is shown. […] A single representative blot is shown. […] 106 cells were analysed for the plot.
(§2) Moreover, we confirmed the presence of the protein in the correct band using mass spectrometry proteomics. We repeated this with a strain expressing SHV-154, blotting with a polyclonal rabbit antibody raised against the recombinant SHV enzyme described above (FIG. 3K).
(§3) The overnight culture of bacteria was centrifuged for 30 min at 4,000×g and cells were washed with physiological water (NaCl 0.9%). Bacterial cells were treated by peptide at the appropriate concentration for at least 2 h at 37 C. The bacterial pellets were washed with 10 mL buffer A (50 mM HEPES, pH 7.5, 300 mM NaCl, 5 mM β-mercaptoethanol, 1.0 mM EDTA) and centrifuged at 4° C. for 30 min at 4,000×g. The supernatant was discarded and 20 mL of buffer B (buffer A plus 1 tablet of the protease and phosphatase Inhibitor Cocktail (ab201119, Abcam, UK) was added to the bacterial pellet. In order to break the cells, a High-Pressure Homogenizer (Glen Creston Ltd) with the pressure set to 20,000-25,000 psi was used on ice, and in addition, the suspensions were sonicated (Branson Digital sonifier 50/60 Hz) on ice with alternating 2 min cycle (15 pulses at 50% power with 30 s pauses on ice, until completing 2 min total sonication time). The lysed cells were centrifuged at 4° C. for 30 min at 11,000×g. The precipitated fraction was afterward re-suspended with 10 mL buffer D (buffer A plus 0.8% (V/V) Triton X-100, 0.1% sodium deoxycholate) and the suspension was sonicated to ensure the pellet is completely dissolved. This step was repeated three times. Centrifugation was performed at 4° C. for 30 min at 11,000×g. Finally, to solubilize IBs, the pellet was suspended in 500 ul of buffer F (50 mM HEPES, pH 7.5, 8.0 M urea) of precipitated fraction.

[2] = system: TEM beta-lactamase in E. coli UZ_TEM104; assay: western blot of inclusion body (IB) fraction for TEM; assay type: cell-based; details: 12 μM peptide in PBS, 120 min
Method: as §1, §2, §3

E. coli SHV-11 = assay: checkerboard assay (FICI), peptide versus penicillin G; assay type: cell-based; details: strain with SHV-11; FICI below 0.5 = synergy
Excerpt: (§4) FIGS. 2A-2M. (FIG. 2A) TEM mutations and their effects on stability (total energy) as predicted by FoldX. […] Dashed line indicates a total energy difference of 0.5 kcal/mol, the FoldX cut-off above which mutations are considered to be destabilizing. (FIG. 2B) Barplot mapping mutations in (FIG. 2A) to the TEM sequence and indicating occurrence. […] The bar heights correspond to the number of times a mutation occurs across different TEM variants (right-hand y-axis). The color coding is identical to that in (FIG. 2A). Red line indicates the TANGO scores (indicated on the left-hand y-axis), with peaks corresponding to APRs. (FIG. 2C) Mapping of mutations in (FIG. 2A) and (FIG. 2B) to the TEM structure (pdb 1xpb). Protein surface is shown in gray, color coding of mutations is identical to (FIG. 2A) and (FIG. 2B). (FIGS. 2D, 2E, and 2F) Temperature-dependent evolution of the Right-Angle Light Scattering (RALS) intensity during a temperature ramp, similar as in FIG. 1F for key mutants of TEM1, namely TEM-10 (FIG. 2D), TEM-30 (FIG. 2E) and TEM-155 (FIG. 2F). Experiments were shown in triplicate, single repeat is shown. (FIG. 2G) Schematic representation of the structure of the peptides. APR—Aggregation Prone Region, R—Arginine. (FIG. 2H) Ribbon representation of the superposition of the crystal structures of TEM (green, pdb id 1bt5) and SHV (blue, pdb id 1shv). The catalytic site of the beta-lactamase activity is indicated and location of APR3 is shown in red. (FIG. 2I) TANGO aggregation score and alignment of APR3 in TEM and SHV. (FIG. 2J) Fractional Inhibitory Concentration Index determination of 5 peptides versus penicillin on E. coli TEM-104. […] FICI values below 0.5 indicate synergy. Values between 0.5 and 1.0 indicate additivity and values greater than 1 indicate indifference between the combined substances. (FIG. 2K) Same as J for E. coli SHV-11. (FIG. 2L) Same as J for a kanamycin resistant E. coli strain. (FIG. 2M) FICI values for the TEM3.2 peptide on a range of E. coli strains.
(§5) Moreover, the core sequence of peptide TEM3.0 also occurs in the structurally related SHV β-lactamase ([…]). Although the C-terminal extension residues H and N have been replaced with physicochemically similar R and Q, respectively (FIG. 2H). […] To quantify the synergy between these four peptides and penicillin G, we performed a so-called checkerboard assay, which allows to compare the activity of two test compounds co-incubated (here peptide and a beta-lactam antibiotic), to their individual activities in isolation. The result from the assay is quantified as the Fractional Inhibitory Concentration Index (FICI), and it is generally accepted that values below 0.5 indicate synergistic effects between the compounds. As a control, we generated a peptide using the same design, but based on a previously identified APR from the β-galactosidase enzyme (BGAL)^16 from E. coli (APR=SVIIWSL, peptide sequence=[…]) that has a MIC value>100 μg/mL on E. coli strain UZ_TEM104. We evaluated the synergy of the peptides with penicillin G in clinical E. coli isolates carrying the TEM ([…]) or SHV enzymes ([…]). […] As a further control, we also performed a checkerboard assay with an E. coli strain that was resistant to the aminoglycoside kanamycin and observed no synergy between this unrelated antibiotic and our peptides (FIG. 2L), in line with the notion that we are inhibiting a beta-lactamase but not the aminoglycoside degrading enzyme. […] The list of strains included some that harbored only TEM or SHV, but others contained additional Ambler Class A (CTX-M or […]) or Class B (VIM and NDM) beta-lactamases. […] In contrast, the presence of the NDM-type […], that does have a high affinity for Ampicillin and that is completely distinct in sequence and structure from TEM and SHV, seemed to completely prevent the effect of the peptide on the beta-lactam sensitivity of the strains in which it occurred (see also further). […]

E. coli TEM-104 = assay: as above; assay type: cell-based; details: strain with TEM; FICI below 0.5 = synergy
Excerpt: as §4, §5

E. coli UZ_TEM104 = assay: FACS analysis with Propidium Iodide and pFTAA; assay type: cell-based; details: 400 μg/mL penicillin G only, 4 h
Method: as §1
First, we tested the assay using a mixture of live and heat inactivated (FIG. 3L) or just live bacteria (FIG. 3M), showing that heat inactivated, but not live bacteria are stained with PI, and neither are stained with pFTAA.
Bacterial cells in the cleaned suspensions were stained with both propidium iodide (PI) and FITC peptide to evaluate the killing rate and peptide uptake in a two-dimensional analysis. […] Treated bacteria washed with PBS buffer two times. One microliter of PI (Invitrogen) was added to the bacteria and incubated for 5 min. The bacteria were used by FACS tubes for 40000 events. To correlate the activity of the peptides with cell death, the fluorescence intensity was measured in two channels using the Gallios™ Flow Cytometer (Beckman Coulter, USA), PI: excitation 536 nm and emission 617 nm, FITC: excitation 490 nm and emission 525 nm. Heated bacteria at 90° C. for 10 min were used as PI-positive control.

E. coli strain UZ_TEM104 [3] = assay type: cell-based
E. coli strain UZ_TEM104 [4] = assay type: cell-based; details: peptide alone
Excerpt: In order to generate a synthetic amyloid peptide capable of inactivating the TEM-1 beta-lactamase enzyme by capitalizing on its aggregation propensity, we applied a previously developed design pattern for synthetic aggregating sequences. This involves a tandem repeat of the APR, each instance flanked by charged amino acids for solubility and separated by a short peptide linker^19,20,23 (FIG. 2G). Previous work has shown that good bacterial uptake can be achieved using one positively charged arginine residue on the N-terminal side of each APR in the tandem and two arginine residues on the C-terminal side. This has the additional benefit of reducing the self-aggregation of the peptides and increasing their solubility prior to target engagement. As before, we employed a single Pro residue as a linker between the APRs and focused on an APR length of seven, extending shorter APRs to this length by incorporating flanking amino acids unless they were obvious aggregation breakers (Arg, Lys, Asp, Glu or Pro, see Table 1). We obtained these peptides from solid phase synthesis, followed by HPLC purification to a purity judged by reverse phase chromatography of at least 90% (Genscript).
Determination of MIC values using the broth microdilution in the 96-well plate (BD Biosciences, Belgium) according to the EUCAST guideline, which was performed in 96-well polystyrene flat bottom microtiter plates (BD Biosciences). Briefly, a single colony was inoculated into 5 mL Difco™ Mueller Hinton Broth (BD Biosciences Ref 275730) and grown to the end-exponential growth phase in a shaking incubator at 37° C. Cultures were subsequently diluted to an MacFarland (0.5 optical density) then the culture was diluted to reach 10^6 CFU/mL in fresh MHB medium. 50 μl of different concentration of peptides ranging from 128 to 2 μg/mL were serially diluted to the sterile 96-well plate in MHB. 50 μL of the diluted bacteria in MHB were pipetted into 96-well plates to reach the final volume of 100 μL. The bacteria grown with the maximum concentration of carrier and medium were considered as positive and negative controls, respectively. The plates were statically incubated overnight at 37° C. to allow bacterial growth. OD was measured at 590 nm a multipurpose ultraviolet-visible plate reader, and the absorbance of the growth bacteria was measured using absorbance reader. Bacterial growth was also visually inspected and agreed well with the OD reading.

T1 sequence (P62593 24-286 limits assumed): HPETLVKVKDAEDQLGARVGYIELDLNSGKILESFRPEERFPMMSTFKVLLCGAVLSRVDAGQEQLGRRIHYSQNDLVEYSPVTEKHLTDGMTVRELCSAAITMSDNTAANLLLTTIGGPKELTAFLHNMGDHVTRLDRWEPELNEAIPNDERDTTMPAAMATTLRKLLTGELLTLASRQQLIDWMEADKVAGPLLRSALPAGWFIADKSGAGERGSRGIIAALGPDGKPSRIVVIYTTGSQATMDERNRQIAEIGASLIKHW

**Q.** With `NC(=O)[C@@H]1CC[C@@H]2CN1C(=O)N2OS(=O)(=O)O` [avibactam] as the molecule, how does the “aggregation of the enzyme (static light scattering), dose-response” value (“aggregation of the enzyme” for short) (TEM-1) read?
**A.** Its value is “reduce the aggregation of the enzyme in a dose-responsive manner”.

**Q.** What does the source list for “RLTAFLRQRRPRLTAFLRQRR (non-natural molecule) [TEM3.1]”?
**A.** accumulation of the SHV enzyme in inclusion bodies (western blot) [1]: accumulates in IBs; enrichment of the TEM protein in inclusion bodies (western blot) [2]: not; synergy with penicillin G (FICI) (E. coli SHV-11): clear synergy

**Q.** For `O=C(O)[C@H]1/C(=C/CO)O[C@@H]2CC(=O)N21` [clavulanate], which “aggregation of the enzyme” value (TEM-1) is on record?
**A.** Its value is “reduce the aggregation of the enzyme in a dose-responsive manner”.

**Q.** Which results are given for “RLTAFLRQRRPRLTAFLHNRR (non-natural molecule) [TEM3.3]”?
**A.** accumulation of the SHV enzyme in inclusion bodies (western blot) [1]: accumulates in IBs; enrichment of the TEM protein in inclusion bodies (western blot) [2]: clear enrichment of the TEM protein in IBs; synergy with penicillin G (FICI) (E. coli SHV-11): synergy; synergy with penicillin G (FICI) (E. coli TEM-104): synergy

**Q.** With `CC1(C)S[C@@H]2[C@H](NC(=O)Cc3ccccc3)C(=O)N2[C@H]1C(=O)O` [penicillin G, Benzylpenicillin sodium] as the molecule, how does the “change in PI (cell death) and pFTAA (aggregation) channels” value (E. coli UZ_TEM104) read?
**A.** The value was “no major change in either channel”.

**Q.** And the MIC penicillin (E. coli strain UZ_TEM104 [3]; penicillin alone, buffer, additive 0 μg/mL)?
**A.** The MIC penicillin was 1600 µg/mL.

**Q.** `O=C(O)C[C@@H]1CC[C@H](NC(=O)Cc2cccs2)B(O)O1` [vaborbactam] was tested. Which “aggregation of the enzyme” value (TEM-1) did it give?
**A.** The value was “reduce the aggregation of the enzyme in a dose-responsive manner”.

**Q.** Which MIC peptide (E. coli strain UZ_TEM104 [4]) does the source give for Ac-RLLLTTIGRRPRLLLTTIGRR-NH2 [TEM2.0] here?
**A.** The MIC peptide was >100 µg/mL.

**Q.** And the MIC penicillin (E. coli strain UZ_TEM104 [3]; in presence of additive at 50 μg/mL)?
**A.** The MIC penicillin was 800 µg/mL.
